{
  "source": "ChEMBL document CHEMBL1201862",
  "about": "“PubChem BioAssay data set” (2004)",
  "key": {"cells [1]": {"assay": "cells", "format": "functional, cell-based"}, "cells [2]": {"assay": "cells", "format": "functional, cell-based", "remark": "listed apart in the source"}, "[3]": {"assay": "NIH-3T3 fibroblast cytotoxicity, dose response, cytotoxicity control, cell-based, fluorescence, Alamar Blue, secondary assay (AID 2327);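 note: NIH-3T3 mouse fibroblasts cultured with fluconazole at 8 µg/mL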", "format": "functional"}, "[4]": {"assay": "fluconazole-exposed Candida albicans growth modulators – fluorescence, retest, confirmation (AID 2467)", "format": "functional, cell-based"}, "[5]": {"biological_target": "T1, Serine/threonine-protein phosphatase (Candida dubliniensis (strain CD36 / CBS 7987 / NCPF 3949 / NRRLY-17841) (Yeast), UniProt B9W6M3)", "T1 sequence (B9W6M3 whole entry)": "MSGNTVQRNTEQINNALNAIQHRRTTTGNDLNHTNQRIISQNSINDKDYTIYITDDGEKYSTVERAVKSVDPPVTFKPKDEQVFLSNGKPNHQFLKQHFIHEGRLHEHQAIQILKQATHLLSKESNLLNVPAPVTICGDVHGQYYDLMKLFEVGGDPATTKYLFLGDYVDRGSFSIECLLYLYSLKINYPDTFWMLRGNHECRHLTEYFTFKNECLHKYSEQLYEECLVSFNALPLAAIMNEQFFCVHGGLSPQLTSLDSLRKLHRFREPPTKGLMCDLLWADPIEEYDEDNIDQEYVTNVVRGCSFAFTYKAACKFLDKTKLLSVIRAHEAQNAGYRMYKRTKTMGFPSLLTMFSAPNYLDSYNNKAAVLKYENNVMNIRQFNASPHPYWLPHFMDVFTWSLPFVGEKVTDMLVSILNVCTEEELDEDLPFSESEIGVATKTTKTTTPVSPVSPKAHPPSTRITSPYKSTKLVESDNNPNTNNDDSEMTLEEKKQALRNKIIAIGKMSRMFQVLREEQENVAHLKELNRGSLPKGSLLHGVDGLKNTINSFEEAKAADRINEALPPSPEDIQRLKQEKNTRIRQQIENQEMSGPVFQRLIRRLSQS", "assay": "blockers of CaCl2-induced CDRE-lacZ signaling – S. cerevisiae, luminescence, secondary, dose response (AID 2388);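 note: yeast reporter cells carrying a calcineurin-responsive lacZ construct stimulated with calcium chloride; luminescent beta-galactosidase reporter signal in whole cells rather than isolated phosphatase activity; potency for inhibition where a drop in reporter signal means calcineurin blockade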", "format": "functional, cell-based"}, "Nonstructural protein 1": {"biological_target": "Nonstructural protein 1 (Influenza A virus, UniProt Q194T2)", "sequence (Q194T2 whole entry)": "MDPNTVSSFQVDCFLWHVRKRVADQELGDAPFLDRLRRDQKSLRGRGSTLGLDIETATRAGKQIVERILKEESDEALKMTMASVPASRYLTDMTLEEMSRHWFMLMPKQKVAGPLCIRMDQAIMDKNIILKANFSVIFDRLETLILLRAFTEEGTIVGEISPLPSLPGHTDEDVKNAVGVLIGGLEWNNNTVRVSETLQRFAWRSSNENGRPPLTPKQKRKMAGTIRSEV", "format": "functional, Influenza A virus (A/California/07/2009(H1N1))"}, "[6]": {"biological_target": "ATP-dependent molecular chaperone HSP82 (Candida albicans (strain WO-1) (Yeast), UniProt C4YTQ8)", "sequence (C4YTQ8 whole entry)": "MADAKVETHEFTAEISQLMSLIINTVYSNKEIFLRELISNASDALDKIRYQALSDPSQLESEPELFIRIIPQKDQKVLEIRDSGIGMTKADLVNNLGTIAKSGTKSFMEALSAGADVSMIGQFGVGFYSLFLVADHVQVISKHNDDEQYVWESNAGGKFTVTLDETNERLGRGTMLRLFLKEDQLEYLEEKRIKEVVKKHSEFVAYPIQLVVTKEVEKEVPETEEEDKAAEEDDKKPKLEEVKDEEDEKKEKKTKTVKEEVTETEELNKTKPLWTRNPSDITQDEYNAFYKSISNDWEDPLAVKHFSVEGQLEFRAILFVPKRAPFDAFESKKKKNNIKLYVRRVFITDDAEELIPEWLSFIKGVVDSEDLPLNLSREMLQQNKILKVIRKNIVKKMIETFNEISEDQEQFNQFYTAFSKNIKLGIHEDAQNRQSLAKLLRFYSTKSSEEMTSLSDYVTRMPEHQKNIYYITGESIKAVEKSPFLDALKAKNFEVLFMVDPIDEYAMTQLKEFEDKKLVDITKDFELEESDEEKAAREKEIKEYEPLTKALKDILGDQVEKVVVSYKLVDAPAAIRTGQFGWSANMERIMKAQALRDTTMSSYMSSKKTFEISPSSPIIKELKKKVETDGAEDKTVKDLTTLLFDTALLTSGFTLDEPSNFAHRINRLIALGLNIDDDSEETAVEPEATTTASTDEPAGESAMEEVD", "assay": "steroid-induced GRE reporter decrease in yeast – S. cerevisiae, luminescence, Hsp90 inhibitor project, dose response (AID 2400);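 note: beta-galactosidase luminescence from glucocorticoid response element reporter as proxy for Hsp90 function; inhibitor potency where signal loss means Hsp90 inhibition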", "format": "functional, cell-based"}, "[7]": {"biological_target": "26S proteasome non-ATPase regulatory subunit 14 (Homo sapiens, UniProt O00487)", "sequence (O00487 whole entry)": "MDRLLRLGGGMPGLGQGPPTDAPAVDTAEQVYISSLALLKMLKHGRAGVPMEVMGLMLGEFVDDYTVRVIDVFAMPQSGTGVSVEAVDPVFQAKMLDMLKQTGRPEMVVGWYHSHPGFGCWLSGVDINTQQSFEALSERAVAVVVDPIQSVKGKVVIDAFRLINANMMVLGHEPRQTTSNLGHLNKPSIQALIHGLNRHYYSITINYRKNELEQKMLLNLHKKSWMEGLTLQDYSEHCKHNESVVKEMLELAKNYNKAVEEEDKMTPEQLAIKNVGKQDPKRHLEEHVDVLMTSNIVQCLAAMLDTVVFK", "assay": "inhibition of proteasome subunit RPN11 – biochemical, fluorescence polarization, uHTS hits, confirmation (AID 602368)", "format": "functional"}, "[8]": {"biological_target": "72 kDa type IV collagenase (Homo sapiens, UniProt P08253)", "sequence (P08253 whole entry)": "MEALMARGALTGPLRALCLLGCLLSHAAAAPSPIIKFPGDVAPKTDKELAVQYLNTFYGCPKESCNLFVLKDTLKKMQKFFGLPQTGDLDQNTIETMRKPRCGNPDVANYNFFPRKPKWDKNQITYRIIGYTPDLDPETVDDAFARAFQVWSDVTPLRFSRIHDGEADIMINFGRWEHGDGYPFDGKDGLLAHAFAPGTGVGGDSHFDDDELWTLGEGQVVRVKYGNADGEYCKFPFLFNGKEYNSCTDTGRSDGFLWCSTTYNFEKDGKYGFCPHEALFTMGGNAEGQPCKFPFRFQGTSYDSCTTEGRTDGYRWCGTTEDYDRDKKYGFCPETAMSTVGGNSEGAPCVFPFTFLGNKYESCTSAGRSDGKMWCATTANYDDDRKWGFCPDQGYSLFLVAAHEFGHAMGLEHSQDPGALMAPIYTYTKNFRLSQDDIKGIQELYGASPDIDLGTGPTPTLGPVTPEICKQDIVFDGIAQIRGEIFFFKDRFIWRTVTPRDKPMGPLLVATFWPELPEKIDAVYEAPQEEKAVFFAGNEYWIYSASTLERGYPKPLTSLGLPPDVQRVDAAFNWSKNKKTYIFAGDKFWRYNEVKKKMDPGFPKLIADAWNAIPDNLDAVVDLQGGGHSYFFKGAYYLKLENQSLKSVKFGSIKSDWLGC", "assay": "Dose Response validation of uHTS RPN11 inhibitor hits using a MMP-2 Fluorescence assay.", "format": "functional"}, "Prothrombin": {"biological_target": "Prothrombin (Bos taurus, UniProt P00735)", "assay": "thrombin protease inhibitors – biochemical, fluorescence polarization, uHTS hits, dose response (AID 602369)", "format": "functional"}, "[9]": {"biological_target": "Photoreceptor-specific nuclear receptor (Homo sapiens, UniProt Q9Y5X4)", "sequence (Q9Y5X4 whole entry)": "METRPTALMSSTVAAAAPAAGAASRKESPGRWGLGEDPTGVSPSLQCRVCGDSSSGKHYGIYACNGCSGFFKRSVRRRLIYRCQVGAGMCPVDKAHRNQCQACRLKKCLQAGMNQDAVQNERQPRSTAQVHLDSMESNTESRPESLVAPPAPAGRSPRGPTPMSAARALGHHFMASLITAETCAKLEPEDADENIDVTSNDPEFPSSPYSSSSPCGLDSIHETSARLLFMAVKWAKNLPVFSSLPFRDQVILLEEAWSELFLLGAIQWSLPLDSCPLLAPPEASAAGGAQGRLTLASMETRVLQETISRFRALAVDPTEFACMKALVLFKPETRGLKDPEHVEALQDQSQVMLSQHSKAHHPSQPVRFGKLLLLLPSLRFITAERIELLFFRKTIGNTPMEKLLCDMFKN", "format": "functional, cell-based"}, "[10]": {"assay": "viability loss in HepG2 hepatoma cells – cell-based, ATP luminescence, cherry-pick, activator set 2, cytotoxicity control, dose response (AID 1053143)", "format": "functional"}, "[11]": {"biological_target": "T2, Sentrin-specific protease 1 (Homo sapiens, UniProt Q9P0U3)", "T2 sequence (Q9P0U3 whole entry)": "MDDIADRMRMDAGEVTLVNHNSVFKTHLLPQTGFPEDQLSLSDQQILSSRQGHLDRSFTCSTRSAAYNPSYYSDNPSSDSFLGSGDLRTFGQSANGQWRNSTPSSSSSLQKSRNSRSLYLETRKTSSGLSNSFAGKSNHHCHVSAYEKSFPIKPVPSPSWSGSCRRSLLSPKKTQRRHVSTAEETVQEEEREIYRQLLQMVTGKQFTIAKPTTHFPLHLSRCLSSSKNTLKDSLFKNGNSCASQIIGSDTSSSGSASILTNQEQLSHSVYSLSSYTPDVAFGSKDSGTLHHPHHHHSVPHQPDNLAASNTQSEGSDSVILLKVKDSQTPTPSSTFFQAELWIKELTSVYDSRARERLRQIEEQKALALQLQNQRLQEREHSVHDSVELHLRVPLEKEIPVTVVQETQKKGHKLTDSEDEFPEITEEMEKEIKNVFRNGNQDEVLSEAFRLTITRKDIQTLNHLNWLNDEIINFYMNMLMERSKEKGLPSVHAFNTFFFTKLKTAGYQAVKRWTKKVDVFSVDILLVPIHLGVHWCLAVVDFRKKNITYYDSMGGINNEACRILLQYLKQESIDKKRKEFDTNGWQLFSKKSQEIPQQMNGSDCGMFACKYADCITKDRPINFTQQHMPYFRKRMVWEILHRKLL", "assay": "SENP1 catalytic domain blockers, concentration series – biochemical, kinetic FRET, dose response (AID 651697)", "format": "functional", "conditions": "read-out: IC50_Mean"}, "[12]": {"biological_target": "T2, Sentrin-specific protease 1", "assay": "Dose response confirmation of small molecule inhibitors of the catalytic domain of the SUMO protease, SENP1 in a FRET assay.", "format": "functional", "conditions": "read-out: IC50_Mean"}, "[13]": {"assay": "Luminescence Cell-Based Dose Response HTS to Identify Inhibitors of 5'UTR Stem-Loop Driven Prion Protein mRNA Translation in H4 Neuroglioblastoma Cells. [Related pubchem assays: 1827 (Project Summary), 1813 (Primary HTS)]", "format": "functional"}, "[14]": {"assay": "alpha-synuclein stem-loop luciferase translation blockers – H4 neuroglioma cells, luminescence, confirmation (AID 1988)", "format": "functional, cell-based"}, "cells [15]": {"assay": "cells", "format": "functional, cell-based", "remark": "listed apart in the source"}, "[16]": {"biological_target": "Nuclear receptor subfamily 0 group B member 1 (Homo sapiens, UniProt P51843)", "sequence (P51843 whole entry)": "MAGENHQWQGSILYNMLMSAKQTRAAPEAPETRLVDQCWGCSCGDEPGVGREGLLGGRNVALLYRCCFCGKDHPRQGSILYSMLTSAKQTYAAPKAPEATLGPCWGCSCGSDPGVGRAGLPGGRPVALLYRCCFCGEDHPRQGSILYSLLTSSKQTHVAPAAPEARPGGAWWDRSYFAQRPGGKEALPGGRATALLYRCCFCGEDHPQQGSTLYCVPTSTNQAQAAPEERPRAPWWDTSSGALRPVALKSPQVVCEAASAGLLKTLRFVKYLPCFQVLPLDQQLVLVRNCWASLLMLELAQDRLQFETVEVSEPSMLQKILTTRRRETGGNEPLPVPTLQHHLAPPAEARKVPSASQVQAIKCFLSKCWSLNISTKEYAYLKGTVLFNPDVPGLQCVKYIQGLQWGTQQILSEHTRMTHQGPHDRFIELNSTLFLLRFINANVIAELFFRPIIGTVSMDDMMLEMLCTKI", "format": "functional, cell-based"}, "[17]": {"assay": "loss of viability in HepG2 cells – cell-based, CellTiter-Glo, cherry-picked, cytotoxicity control for Shn3 inhibitor project, dose response (AID 624134)", "format": "functional"}, "[18]": {"assay": "non-specific 3'UTR reporter inhibition in Clone20-Shn3RL – cell-based, Renilla luciferase, cherry-picked, counter-screen for Shn3 inhibitor project, dose response (AID 624133)", "format": "functional"}, "Protein Wnt-3a": {"biological_target": "Protein Wnt-3a (Mus musculus, UniProt P27467)", "sequence (P27467 whole entry)": "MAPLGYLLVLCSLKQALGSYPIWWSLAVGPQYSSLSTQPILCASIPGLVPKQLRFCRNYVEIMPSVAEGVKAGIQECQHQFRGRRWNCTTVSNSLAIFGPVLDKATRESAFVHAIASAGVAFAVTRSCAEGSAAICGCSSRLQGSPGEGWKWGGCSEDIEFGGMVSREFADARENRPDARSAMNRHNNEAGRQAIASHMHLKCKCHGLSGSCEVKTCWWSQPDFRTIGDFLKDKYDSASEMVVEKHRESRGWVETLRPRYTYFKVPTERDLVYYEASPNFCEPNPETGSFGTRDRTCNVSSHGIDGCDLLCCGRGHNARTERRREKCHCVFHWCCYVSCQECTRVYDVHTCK", "assay": "antagonism of Wnt3a pathway luciferase reporter – Wnt-LIGHT cells, luminescence, selectivity assay for Gli-SUFU antagonist project, dose response (AID 651570);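 note: Wnt-LIGHT reporter cells stimulated with conditioned medium from Wnt3a-producing cells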", "format": "functional", "conditions": "read-out: IC50_Mean"}, "[19]": {"assay": "Luminescence Cell-Based Dose Response HTS to Identify Activators of Luciferase Translation or Activity in H4 […] Cells. [Related pubchem assays: 1829 (Project Summary), 1814 (Primary HTS)]", "format": "functional"}, "H4": {"test_system": "H4", "assay": "Luminescence Cell-Based Dose Response HTS to Identify Activators of 5'UTR Stem-Loop Driven Prion Protein mRNA Translation in H4 Neuroglioblastoma Cells. [Related pubchem assays: 1829 (Project Summary), 1814 (Primary HTS)]", "format": "functional", "conditions": "Homo sapiens"}},
  "note": "Active and inactive are the calls of the source.",
  "data": [
    {"smiles": "Oc1ccnc(NCCc2ccccc2)n1", "values": [
      {"measurement": "IC50", "setting": "cells [1]", "value": "> 29.9 µM (inactive)"},
      {"measurement": "EC50", "setting": "cells [2]", "value": "> 29.9 µM (inactive)"}
    ]},
    {"smiles": "CCC(=O)NC(c1cccs1)c1cc([N+](=O)[O-])c2cccnc2c1O", "note": "(centres undefined)", "values": [
      {"measurement": "EC50", "setting": "[3]", "value": "33.6 µM (active)"},
      {"measurement": "EC50", "setting": "[4]", "value": "0.185 µM (active)"},
      {"measurement": "EC50", "setting": "[5]", "value": "> 180 µM (inactive)"},
      {"measurement": "IC50", "setting": "Nonstructural protein 1", "value": "6.66 µM (active)"},
      {"measurement": "EC50", "setting": "[6]", "value": "24 µM (active)"},
      {"measurement": "IC50", "setting": "[7]", "value": "40.3 µM (active)"},
      {"measurement": "IC50", "setting": "[8]", "value": "5.91 µM (active)"},
      {"measurement": "IC50", "setting": "Prothrombin", "value": "> 100 µM (inactive)"},
      {"measurement": "IC50", "setting": "[9]", "value": "2.47 µM (active)"}
    ]},
    {"smiles": "Cc1ncsc1C(=O)Nc1nc2c(s1)CC(C)CC2", "note": "(centres undefined)", "values": [
      {"measurement": "AC50", "setting": "[10]", "value": "> 52 µM (inactive)"}
    ]},
    {"smiles": "COc1cc(/C=C2\\CCCc3c2nc2ccccc2c3C(=O)O)cc(Cl)c1O", "values": [
      {"measurement": "IC50", "setting": "[11]", "value": "4.82 µM (active)"},
      {"measurement": "IC50", "setting": "[12]", "value": "2.96 µM (active)"}
    ]},
    {"smiles": "Cc1ccc(-c2cc(C(=O)N3CCCC3)no2)cc1", "values": [
      {"measurement": "EC50", "setting": "[13]", "value": "2.79 µM (active)"},
      {"measurement": "EC50", "setting": "[14]", "value": "9.94 µM (inconclusive)"},
      {"measurement": "IC50", "setting": "cells [15]", "value": "> 67.5 µM (inactive)"},
      {"measurement": "IC50", "setting": "[16]", "value": "> 67.5 µM (inactive)"}
    ]},
    {"smiles": "CCCCCCCN1C2=NCCCN2c2ccccc21", "values": [
      {"measurement": "AC50", "setting": "[17]", "value": "46 µM (active)"},
      {"measurement": "AC50", "setting": "[18]", "value": "11.8 µM (active)"},
      {"measurement": "IC50", "setting": "Protein Wnt-3a", "value": "12.6 µM (active)"}
    ]},
    {"smiles": "CCOC(=O)C1CCN(c2ccc(-c3cccs3)nn2)CC1", "values": [
      {"measurement": "EC50", "setting": "[19]", "value": "0.391 µM (active)"},
      {"measurement": "EC50", "setting": "H4", "value": "96.1 µM (active)"},
      {"measurement": "AC50", "setting": "[10]", "value": "26 µM (active)"}
    ]}
  ]
}
